pIC50: −log10 of the molar value. “And” between values parts separate entries of the source, which are not always exact repeats. Equal entries are not always repeated.
Tests used:
[1] = molecular target: T1, 5-hydroxytryptamine receptor 1A (Rattus norvegicus, UniProt P19327); assay: biochemical
T1 sequence (P19327 whole entry): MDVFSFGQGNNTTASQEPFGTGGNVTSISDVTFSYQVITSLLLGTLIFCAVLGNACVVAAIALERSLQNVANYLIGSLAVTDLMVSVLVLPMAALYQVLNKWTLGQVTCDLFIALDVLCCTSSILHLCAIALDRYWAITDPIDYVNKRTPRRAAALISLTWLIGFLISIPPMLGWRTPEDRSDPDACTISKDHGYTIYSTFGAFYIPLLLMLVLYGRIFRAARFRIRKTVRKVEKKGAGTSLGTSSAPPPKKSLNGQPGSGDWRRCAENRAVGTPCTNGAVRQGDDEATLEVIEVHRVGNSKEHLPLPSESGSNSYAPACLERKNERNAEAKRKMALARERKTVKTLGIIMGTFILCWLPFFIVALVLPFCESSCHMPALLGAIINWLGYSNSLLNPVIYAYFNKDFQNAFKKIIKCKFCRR
Description: Binding affinity to 5-HT1A receptor in rat hippocampus by [3H]8-OH-DPAT displacement.

D(2) dopamine receptor [2] = molecular target: T2, D(2) dopamine receptor (Homo sapiens, UniProt P14416); assay: Binding affinity to cloned human Dopamine receptor D2 expressed in A9L cells using [3H]spiperone at 100 nM concentration; assay type: cell-based
[3] = molecular target: T3, D(4) dopamine receptor (Homo sapiens) (UniProt P21917); assay: Binding affinity to cloned human dopamine receptor D4 expressed in CHO cells using [3H]spiperone at 100 nM concentration; assay type: cell-based
T3 sequence (whole entry): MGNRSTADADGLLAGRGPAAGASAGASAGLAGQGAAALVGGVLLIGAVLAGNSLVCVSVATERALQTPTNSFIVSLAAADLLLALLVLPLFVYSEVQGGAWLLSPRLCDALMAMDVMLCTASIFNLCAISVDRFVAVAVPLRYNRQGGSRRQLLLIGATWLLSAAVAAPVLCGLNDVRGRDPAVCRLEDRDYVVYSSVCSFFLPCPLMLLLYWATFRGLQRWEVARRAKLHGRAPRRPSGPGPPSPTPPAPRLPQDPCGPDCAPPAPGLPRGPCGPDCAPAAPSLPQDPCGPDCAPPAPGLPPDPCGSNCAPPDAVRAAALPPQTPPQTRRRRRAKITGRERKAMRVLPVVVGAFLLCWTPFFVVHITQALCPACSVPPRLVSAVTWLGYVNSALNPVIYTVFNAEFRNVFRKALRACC

D(3) dopamine receptor [4] = molecular target: T4, D(3) dopamine receptor (Homo sapiens, UniProt P35462); assay: Binding affinity to cloned human Dopamine receptor D3 expressed in CHO cells using [3H]spiperone at 100 nM concentration; assay type: cell-based
D(3) dopamine receptor [5] = molecular target: T4, D(3) dopamine receptor; assay: biochemical
Description: Binding affinity to cloned human Dopamine receptor D3 expressed in CHO cells by [3H]spiperone displacement.

D(2) dopamine receptor [6] = molecular target: T2, D(2) dopamine receptor; assay: biochemical
Description: Binding affinity to cloned human Dopamine receptor D2 expressed in A9L cells by [3H]spiperone displacement.

D(4) dopamine receptor = molecular target: T5, D(4) dopamine receptor (Homo sapiens, UniProt P21917); assay: biochemical
T5 sequence (P21917 whole entry): T3 sequence (whole entry)
Description: Binding affinity to cloned human Dopamine receptor D4 expressed in CHO cells using [3H]spiperone

T4 sequence (P35462 whole entry): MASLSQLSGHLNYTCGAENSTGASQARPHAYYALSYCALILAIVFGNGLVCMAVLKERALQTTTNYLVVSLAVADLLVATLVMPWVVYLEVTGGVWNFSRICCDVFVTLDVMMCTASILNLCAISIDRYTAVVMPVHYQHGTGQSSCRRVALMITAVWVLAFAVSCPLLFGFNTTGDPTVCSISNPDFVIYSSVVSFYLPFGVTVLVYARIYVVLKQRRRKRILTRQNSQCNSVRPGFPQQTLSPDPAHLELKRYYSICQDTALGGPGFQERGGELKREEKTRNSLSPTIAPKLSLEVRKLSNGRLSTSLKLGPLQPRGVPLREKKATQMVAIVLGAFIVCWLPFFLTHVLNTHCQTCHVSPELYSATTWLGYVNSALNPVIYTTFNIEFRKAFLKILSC
T2 sequence (P14416 whole entry): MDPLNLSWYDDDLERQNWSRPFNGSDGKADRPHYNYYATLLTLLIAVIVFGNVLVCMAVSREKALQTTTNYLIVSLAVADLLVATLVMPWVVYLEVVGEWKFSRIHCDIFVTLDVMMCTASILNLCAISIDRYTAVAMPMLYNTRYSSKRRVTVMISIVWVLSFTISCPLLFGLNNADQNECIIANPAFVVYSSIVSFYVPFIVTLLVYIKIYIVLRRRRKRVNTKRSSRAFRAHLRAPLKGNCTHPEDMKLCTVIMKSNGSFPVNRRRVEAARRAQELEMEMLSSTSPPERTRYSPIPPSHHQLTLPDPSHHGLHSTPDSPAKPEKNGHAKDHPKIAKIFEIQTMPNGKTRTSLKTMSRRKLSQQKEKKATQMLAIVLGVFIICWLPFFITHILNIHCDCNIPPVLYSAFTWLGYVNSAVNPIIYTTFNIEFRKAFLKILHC

| pIC50 [1] | pIC50 (D(3) dopamine receptor [5]) | pIC50 (D(2) dopamine receptor [6]) | pIC50 (D(4) dopamine receptor) | Compound | inhibition (D(2) dopamine receptor [2]) | inhibition [3] | inhibition (D(3) dopamine receptor [4]) |
| --- | --- | --- | --- | --- | --- | --- | --- |
| 7.15 | 7.48 | 7.64 | 8.22 | Fc1ccc(-c2cncc(CN3CCN(c4ccccc4)CC3)c2)cc1 |  |  |  |
| 7.70 | 8.10 | 7.60 | 8.52 and 8.15 | Fc1ccc(-c2cncc(CN3CCN(c4ccccc4F)CC3)c2)cc1 |  |  |  |
| 6.40 | 6.32 | 6.35 | 7.60 | Fc1ccc(-c2cncc(CN3CCN(c4cnccn4)CC3)c2)cc1 |  |  |  |
| 6.40 | 6.70 | 7.15 | 8.10 | Fc1ccc(-c2cncc(CN3CCN(c4ccc(F)cc4)CC3)c2)cc1 |  |  |  |
| 7.00 | 6.82 | 6.92 | 8.05 and 8.15 | Fc1ccc(-c2cncc(CN3CCN(c4ncccn4)CC3)c2)cc1 |  |  |  |
| 6.15 | 7.23 | 7.31 | 8.70 and 8.15 | Fc1ccc(-c2cccc(CN3CCN(c4ncccn4)CC3)c2)cc1 |  |  |  |
| 8.00 | 6.52 | 7.22 | 8.15 | Fc1ccc(-c2cncc(CN3CCN(c4ccccn4)CC3)c2)cc1 |  |  |  |

The next lines start with the compound.

| Compound | pIC50 [1] | pIC50 (D(3) dopamine receptor [5]) | pIC50 (D(2) dopamine receptor [6]) | pIC50 (D(4) dopamine receptor) | inhibition (D(2) dopamine receptor [2]) | inhibition [3] | inhibition (D(3) dopamine receptor [4]) |
| --- | --- | --- | --- | --- | --- | --- | --- |
| c1cnc(N2CCN(Cc3cccc4c3sc3ccccc34)CC2)nc1 | < 7.00 |  |  |  | 97% | 87% | 101% |
| c1cnc(N2CCN(Cc3cccc4c3Cc3ccccc3-4)CC2)nc1 | < 5.00 | 5.25 | 5.01 | 7.70 |  |  |  |
| c1cnc(N2CCN(Cc3cccc4c3-c3ccccc3C4)CC2)nc1 | < 7.00 | 5.40 | 5.64 | 5.32 |  |  |  |
| CC(C)Oc1cccnc1N(C)C1CCN(Cc2ccccc2)CC1 | < 6.00 | 5.26 | 6.21 | 8.30 and 8.10 |  |  |  |
| c1cnc(N2CCN(Cc3cccc(-c4ccsc4)c3)CC2)nc1 | 6.22 | 6.70 | 6.52 | 8.52 and 8.22 |  |  |  |
| Fc1ccccc1-c1cccc(CN2CCN(c3ncccn3)CC2)c1 | 6.05 | 6.49 | 6.60 | 8.10 |  |  |  |
| c1cnc(N2CCN(CC3c4ccccc4-c4ccccc43)CC2)nc1 | < 7.00 |  |  |  | 100% | 99% | 95% |
| c1cnc(N2CCN(Cc3ccc4c(c3)Cc3ccccc3-4)CC2)nc1 | < 7.00 |  |  |  | 89% | 87% | 91% |
| c1cnc(N2CCN(Cc3cccc4c3oc3ccccc34)CC2)nc1 | < 7.00 |  |  | 6.54 | 94% |  | 91% |
| COc1ccc(-c2cccc(CN3CCN(c4ncccn4)CC3)c2)cc1 | 5.70 | 7.14 | 7.30 | 7.24 |  |  |  |
| COc1ccccc1-c1cccc(CN2CCN(c3ncccn3)CC2)c1 | 6.52 | 6.15 | 6.44 | 7.80 |  |  |  |
| Fc1cccc(-c2cccc(CN3CCN(c4ncccn4)CC3)c2)c1 | 6.52 | 6.70 | 7.09 | 8.40 and 8.05 |  |  |  |
| COc1cccc(-c2cccc(CN3CCN(c4ncccn4)CC3)c2)c1 | 6.15 | 5.96 | 6.31 | 7.77 |  |  |  |
